From US9517275B2, “Targeted therapy for the prevention of restenosis in the cardiovascular system” (Northwestern University, priority 2013, dated 2016)
Residues, ends and D or L forms follow the SMILES beside them. *: point of attachment. Lauroyl = CCCCCCCCCCCC(=O)*

Legend:
[1] = Experimental: Adult male Sprague-Dawley rats weighing 350 to 400 g underwent midline neck incision with exposure of internal jugular vein. Targeted nanofiber 2.5 mg was dissolved in 1.0 mL of HBBS and injected within the internal jugular vein using 25 G needle. After complete injection, needle was withdrawn, pressure held at the injection site for 1 minute and the neck incision was closed. Rats were euthanized at 10, 15, 30, 60 min, 4, 16 hours, 4 and 6 days post injection and viscera (liver, lung, kidney and spleen) were harvested.
Carotid arteries and viscera were harvested after in-situ perfusion-fixation with PBS (250 mL) and placed in 2% paraformaldehyde overnight.

[2] = Small angle X-ray scattering (SAXS) of nanostructures; assay type: physicochemical
Experimental: Small angle X-ray scattering (SAXS) experiments were performed at the Advanced Photon Source, Argonne National Laboratory. The X-ray energy (15 keV) was selected using a double-crystal monochromator with a 30 mm offset. Samples were dissolved at a concentration of 5 mM in PBS and placed in 1.5 mm quartz capillary tubes. The typical incident X-ray flux on the sample was ˜1×10^12 photons/s with a 0.2×0.3 mm^2 collimator, and samples were exposed for 4 s. The 1D scattering profiles were obtained by azimuthal integration of the 2D patterns, with scattering from the capillaries and PBS buffer subtracted as background. Scattering profiles were then plotted on a relative scale as a function of the scattering vector q=(4π/λ) sin(θ/2), where θ is the scattering angle.

| Compound | earliest time fluorescence present within the kidneys ([1]; 2.5 mg internal jugular vein) | fluorescence in the kidneys over time ([1]; 2.5 mg internal jugular vein) | fluorescence in the liver over time ([1]; 2.5 mg internal jugular vein) | latest time fluorescence present within the kidneys ([1]; 2.5 mg internal jugular vein) | fluorescence within the liver and kidneys ([1]; 2.5 mg internal jugular vein, 10 min to 6 days) | fluorescence in the brain, heart, intestine and lungs ([1]; any of the time points) | self-assembly by SAXS [2] |
| --- | --- | --- | --- | --- | --- | --- | --- |
| CCCCCCCCCCCC(=O)NCCCC[C@H](NC(=O)[C@@H](NC(=O)[C@@H](NC(=O)[C@H](C)NC(=O)[C@H](C)NC(=O)[C@H](CCCCN)NC(=O)[C@H](CCCCN)NC(=O)[C@H](CS)NC(=O)[C@H](CCCCN)NC(=O)[C@@H]1CCCN1C(=O)[C@H](CC(C)C)NC(=O)[C@H](Cc1c[nH]c2ccccc12)NC(=O)[C@@H](NC(=O)[C@H](CC(C)C)NC(=O)[C@@H](N)CCCCN)C(C)C)C(C)C)C(C)C)C(=O)O [targeted nanofiber, KLVWLPKCK2A2V2K(C12)] (H-KLVWLPKCKKAAVVK(Lauroyl)-OH; N-terminus and C-terminus assumed) | 10 min | increasing fluorescence | Decreasing fluorescence | 6 days | Fluorescence was observed | no fluorescence detected | – |
| KLWVLPKC | – | – | – | – | – | – | did not display any evidence of self-assembly |
